Measured values taken from ChEMBL document CHEMBL1132069, “Syntheses of two trimannose analogs each containing C-mannosyl or 5-thio-C-mannosyl residue: their affinities to concanavalin A” (Bioorg Med Chem Lett, 1999).

Test: Dissociation constant for the binding of compound to concanavalin A (Con A) was determined by fluorescence anisotropy inhibition assay.

| Kd [µM] | SMILES |
| --- | --- |
| 31 | OC[C@@H]1O[C@H](O[C@@H]2[C@@H](O)[C@@H](O)O[C@@H](CC[C@H]3S[C@@H](CO)[C@@H](O)[C@H](O)[C@H]3O)[C@H]2O)[C@H](O)[C@@H](O)[C@@H]1O |
| 198 | OC[C@@H]1O[C@H](CC[C@@H]2O[C@H](O)[C@H](O)[C@@H](O[C@H]3O[C@@H](CO)[C@@H](O)[C@H](O)[C@H]3O)[C@@H]2O)[C@H](O)[C@@H](O)[C@@H]1O |
